Results: patent US11565003B2, “Mechanical opening of lipid bilayers by molecular nanomachines” (William Marsh Rice University, priority 2016, dated 2023)

System: synthetic bilipid vesicles
Assay: BODIPY dye release from synthetic bilipid vesicles upon UV illumination
Details: first 15 minutes of UV exposure, 365 nm
Description: Premixed and dried synthetic phospholipid blend [1,2-dioleoyl-sn-glycero-3-phosphoethanolamine (DOPE): 1,2-dioleoyl-sn-glycero-3-phospho-L-serine (DOPS): 1,2-dioleoyl-sn-glycero-3-phosphocholine (DOPC) at a ratio of 5:3:2] were stored in a −20° C. freezer before use. To prepare the large unilamellar vesicles (LUVs), 5 mL 0.5× phosphate buffered saline (PBS) at pH 7.4 was added to swell the lipids solution (lipid concentration was 0.25 mg/mL). Then 7 μL of 210 μM BODIPY dye and 2 μL of 50 μM 1 (or 16 in the control experiments) were added to the solution. After incubation for 1 hour at room temperature with occasional vortexing, the lipids formed a cloudy suspension. […] The vesicles were then observed using a home-build confocal fluorescence microscope at 488 nm excitation and 535±50 nm emission.
Due to the highly non-polar nature of compound 1, it prefers to be sorbed in the bilipid membrane (FIG. 3). […] The fluorescence intensity of the BODIPY dye molecules in single vesicles was monitored using a confocal fluorescence microscope by continuously scanning a small area (20×20 μm^2).
As the UV illumination time increased from 0 to 15 minutes, the fluorescence intensity of the vesicles became dimmer (FIG. 4E). […] The average fluorescence intensity drop of 20 vesicles was 70±6% (mean±standard deviation) in the first 15 minutes of UV exposure. […]

With `COc1cc(C#Cc2ccc(C3=C4C(C)=C(C#CC56CC7CC(CC(C7)C5)C6)C(C)=[N+]4[B-](F)(F)n4c(C)c(C#CC56CC7CC(CC(C7)C5)C6)c(C)c43)cc2)c(OC)cc1C#Cc1ccc(C2=C3C(C)=C(C#CC45CC6CC(CC(C6)C4)C5)C(C)=[N+]3[B-](F)(F)n3c(C)c(C#CC45CC6CC(CC(C6)C4)C5)c(C)c32)cc1` [Compound 16] the “average fluorescence intensity drop of BODIPY in 20 vesicles (mean±standard deviation)” value was 9%±20%.
